Test results: PubChem BioAssay (NCI)
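At the GI50, growth is halved. TGI denotes the concentration required for complete inhibition of growth.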

How the values were obtained:
Experiment in all cases: inhibition of tumour cell growth, NCI panel, 384-well format
[1] = test system: COLO 205 colon
[2] = test system: SNB-19 CNS
[3] = test system: SF-539 CNS
[4] = test system: SN12C renal
[5] = test system: OVCAR-3 ovarian
[6] = test system: UACC-257 melanoma
[7] = test system: PC-3 prostate
[8] = test system: SW-620 colon
[9] = test system: MALME-3M melanoma
[10] = test system: IGROV1 ovarian
[11] = test system: MOLT-4 leukemia
[12] = test system: NCI-H522 lung
[13] = test system: NCI-H460 NSCLC
[14] = test system: EKVX NSCLC
[15] = test system: KM12 colon
[16] = test system: M14 melanoma
[17] = test system: OVCAR-4 ovarian
[18] = test system: HOP-92 NSCLC
[19] = test system: SK-MEL-28 melanoma
[20] = test system: RXF 393 renal
[21] = test system: HOP-62 NSCLC
[22] = test system: NCI-H226 lung
[23] = test system: DU-145 prostate
[24] = test system: UO-31 renal
[25] = test system: CAKI-1 renal
[26] = test system: SK-OV-3 ovarian
[27] = test system: TK-10 renal
[28] = test system: A498 renal
[29] = test system: K-562 leukemia
[30] = test system: MDA-MB-468 breast
[31] = test system: UACC-62 melanoma
[32] = test system: MDA-MB-435 melanoma
[33] = test system: MDA-MB-231 breast
[34] = test system: SF-268 CNS
[35] = test system: HL-60(TB) leukemia
[36] = test system: 786-0 renal
[37] = test system: BT-549 breast
[38] = test system: NCI-H23 lung
[39] = test system: SK-MEL-2 melanoma
[40] = test system: HT29 colon
[41] = test system: HCT-116 colon

Question: Which results are given for `COc1cc(N2CCC(N3CCN(C)CC3)CC2)ccc1Nc1ncc(Cl)c(Nc2ccccc2S(=O)(=O)C(C)C)n1`?
Answer: GI50 [1]: 51.8 nM; TGI [1]: 232 nM; GI50 [2]: 1220 nM; TGI [2]: 2520 nM; GI50 [3]: 246 nM; TGI [3]: 673 nM; GI50 [4]: 385 nM; TGI [4]: 1400 nM; GI50 [5]: 517 nM; TGI [5]: 1780 nM; GI50 [6]: 571 nM; TGI [6]: 1950 nM; GI50 [7]: 1030 nM; TGI [7]: 2220 nM; GI50 [8]: 218 nM; TGI [8]: 1180 nM; GI50 [9]: 494 nM; TGI [9]: 1840 nM; GI50 [10]: 283 nM; TGI [10]: 1160 nM; GI50 [11]: 202 nM; TGI [11]: 687 nM; GI50 [12]: 367 nM; TGI [12]: 1490 nM; GI50 [13]: 131 nM; TGI [13]: 1070 nM; GI50 [14]: 48.7 nM; TGI [14]: 263 nM; GI50 [15]: 319 nM; TGI [15]: 1290 nM; GI50 [16]: 491 nM; TGI [16]: 1860 nM; GI50 [17]: 417 nM; TGI [17]: 12.2 µM; GI50 [18]: 318 nM; TGI [18]: 1310 nM; GI50 [19]: 17.8 µM; TGI [19]: 32.3 µM; GI50 [20]: 294 nM; TGI [20]: 952 nM; GI50 [21]: 356 nM; TGI [21]: 1350 nM; GI50 [22]: 118 nM; TGI [22]: 648 nM; GI50 [23]: 300 nM; TGI [23]: 1630 nM; GI50 [24]: 929 nM; TGI [24]: 2140 nM; GI50 [25]: 490 nM; TGI [25]: 1560 nM; GI50 [26]: 1110 nM; TGI [26]: 2320 nM; GI50 [27]: 379 nM; TGI [27]: 1510 nM; GI50 [28]: 790 nM; TGI [28]: 2790 nM; GI50 [29]: 404 nM; TGI [29]: 1680 nM; GI50 [30]: 133 nM; TGI [30]: 315 nM; GI50 [31]: 388 nM; TGI [31]: 1690 nM; GI50 [32]: 447 nM; TGI [32]: 1960 nM; GI50 [33]: 556 nM; TGI [33]: 1890 nM; GI50 [34]: 397 nM; TGI [34]: 1510 nM; GI50 [35]: 36.1 nM; TGI [35]: 187 nM; GI50 [36]: 1010 nM; TGI [36]: 2170 nM; GI50 [37]: 418 nM; TGI [37]: 1320 nM; GI50 [38]: 228 nM; TGI [38]: 1390 nM; GI50 [39]: 383 nM; TGI [39]: 1830 nM; GI50 [40]: 48.6 nM; TGI [40]: 294 nM; GI50 [41]: 308 nM; TGI [41]: 1630 nM
